Measured values taken from patent publication US9556417B2, “Reprogramming of cells to a new fate” (The Scripps Research Institute, priority 2010, dated 2017).

Tests used:
Assay type in all cases: cell-based, mouse
R1 ES cells [1] = assay: Serum-free monolayer cardiac differentiation of ES cells, beating colonies; conditions: for cardiac differentiation / percentage of beating colonies: early treatment window; for number of beating colonies: treatment days 5 through 7
Procedure: Having identified the first serum-free monolayer condition for cardiac differentiation of ES cells, we sought to test its efficacy as a platform to discover regulators of cardiomyogenesis. A collection of approximately 200 small molecules and growth factors reported to be influential in developmental processes were assembled. R1 ES cells were grown and plated for differentiation on Matrigel in 24-well plates using the media and growth factors described above. The screening collection was then added and removed from each well at specific time points in order to account for different developmental time windows. The collection was screened at days 0-2, 2-5, and 5-7.
(§1) Cells are plated at a density of 200,000 cells/well of a 6-well plate in 2.5 ml of ESGM. 6-well plates are coated overnight at 4° C. with 1 ml of Matrigel (BD Bioscience) diluted 50× from stock concentration. 24 hours after plating, or after sufficient colony size was achieved, cells are switched into chemically defined medium (CDM) and treated with 4 uM BIO (Calbiochem) and 20 ng/ml BMP-4 (R&D). CDM contains RPMI 1640, 0.5×N2, 1×B27 (without Vitamin A), 0.5× Glutamax, 0.55 mM beta-mercaptoethanol, 1× non-essential amino acids, 1× nucleosides. At Day 2, medium is changed, and again CDM containing 4 uM BIO with 20 ng/ml BMP-4 is added to the cells. At Day 5, cells are washed once with PBS and medium is changed to CDM containing 100 ng/ml Dkk-1 (R&D). At Day 7, medium is changed, and again CDM containing 100 ng/ml Dkk-1 is added to the cells. At Day 10, cells are trypsinized (0.05% trypsin) (Approximately 5 minutes at 37° C., or until cells begin to detach) and replated onto gelatin coated 6-well plates in CDM with no additional growth factors. By this time, the cells will have formed tight colonies that will be difficult to disrupt (Supplementary FIG. 2b). […] The trypsin is used primarily to detach the cells rather than to dissociate them to a single cell suspension. It is preferable for the colonies to remain intact. The trypsin is briefly quenched with MEF media, cells are centrifuged, and resuspended in CDM for plating. Medium is refreshed as needed to remove dead cells and debris (every 1 to 2 days).

R1 ES cells [2] = assay: QRT-PCR of markers in differentiating ES cells; conditions: for expression of cardiac specific markers: treatment days 5-7, assessed at day 8; for expression of Brachyury T, Flk-1, GATA-4 and MESP1: treated day 0-2, harvested day 4.5
Procedure: To further analyze the mechanism of action of the cardiogenic effect seen with these molecules, QRT-PCR was carried out on cells treated from day 0-2 and harvested at day 4.5.
QRT-PCR was carried out to observe the induction of cardiomyogenesis at the transcript level. At day 5, when A83-01 treatment begins, the predominant state is that of a developed primitive streak type population that is yet to display robust expression of markers of cardiac precursors such as Nkx2.5, Isl-1, and c-kit.
Total RNA from each sample was prepared from 5×10^4 cells using RNeasy mini kit (Qiagen). Reverse transcription was carried out by using Reverse Transcription System (Promega) and PCR performed using PCR Super Mix (Invitrogen).

R1 mESCs = assay: Serum-free monolayer cardiac differentiation of ES cells, αMHC immunostaining at day 10; conditions: for effect on cardiac specification (αMHC staining at day 10): factor given in single treatment windows
Excerpt: While cellular differentiation is a fluid process, its study can be simplified by defining stages of differentiation. In order to identify conditions conducive to cardiomyocyte differentiation, we employed a matrix strategy in which cells were differentiated for 10 days encompassing 4 treatment windows (followed by a period of maturation in the final procedure). The stages identified for the current study were mesendoderm, mesoderm, cardiac precursor, early cardiomyocyte, and mature cardiomyocyte. Shown in FIG. 24 is a schematic representing the transition from ES cells to cardiomyocytes, including markers for each cell type defined and the treatments used to stimulate each transition.
We began by identifying a minimal serum-free condition in which approximately 1% of cells would express αMHC (alpha-myosin heavy chain) after 10 days of culture. Combinations of medium components and plate coatings were tested in parallel, with the most permissive and consistent condition being a modified chemically defined N2/B27 medium on Matrigel coated plates (see Methods). Prior to differentiation, ES cells were maintained in a pluripotent state on MEFs and with LIF. At day −1, the cells were trypsinized and replated on Matrigel coated plates in LIF supplemented medium, allowing for better cell survival and more robust initial colony formation. In one day, a sufficient colony size is achieved allowing survival in serum-free medium (FIG. 25).
From a literature search, we identified growth factors, cytokines and small molecules reported to influence cardiac differentiation, such as activators and inhibitors of BMP, TGF-β/Nodal, Hedgehog, Wnt, and Notch pathways and tested each for their ability to induce cardiomyogenesis at each time window. For example, to test Dkk-1 in the second window, cells were in basal medium for days 0-2, treated with Dkk-1 for days 2-5, then cultured in basal medium until day 10 before immunofluorescence scoring. Positive regulators of cardiac specification at each stage were therefore identified by their ability to induce alpha-myosin heavy chain (αMHC) expression at day 10, as assessed by immunostaining.
as §1
Cells were fixed in 4% paraformaldehyde (Sigma) for 15 minutes, and stained in 0.3% Triton (Sigma) containing 5% donkey serum (Jackson ImunoResearch). Antibodies were used at dilutions of MF20 [Developmental Studies Hybridoma Bank (DSHB)] […]

Molecule: C[C@H]1O[C@@H](n2cnc3c(N)ncnc32)C[C@@H]1OP(=O)(OCCSC(=O)C(C)(C)C)OCCSC(=O)C(C)(C)C [2′,5′-dd-3′-AMP-bis(t-Bu-SATE)]
- cardiac differentiation / percentage of beating colonies (R1 ES cells [1]): decrease in the percentage of beating clusters

Molecule: Cc1cccc(-c2nn(C(=S)Nc3ccccc3)cc2-c2ccnc3ccccc23)n1 [A83-01, 3-(6-Methyl-2-pyridinyl)-N-phenyl-4-(4-quinolinyl)-1H-pyrazole-1-carbothioamide]
- number of beating colonies (R1 ES cells [1]): induced a higher number of beating colonies
- expression of cardiac specific markers (R1 ES cells [2]): induced higher levels of expression

Molecule: O=C1Nc2cc(Br)ccc2/C1=C1/Nc2ccccc2/C1=N\O [BIO, 6-bromoindirubin-3′-oxime]
- effect on cardiac specification (αMHC staining at day 10) (R1 mESCs): increase the percentage of αMHC staining
- optimal dosage (R1 mESCs; first window (day 0-2)): 4 µM
- cells staining for αMHC (R1 mESCs; treatment in the first window, day 10): approximately 20%

Molecule: COC(=O)C1=C(C)NC(C)=C([N+](=O)[O-])C1c1ccccc1C(F)(F)F (stereo not shown) [BayK 8644]
- cardiac differentiation / percentage of beating colonies (R1 ES cells [1]): strong positive stimulator of cardiac differentiation
- expression of Brachyury T, Flk-1, GATA-4 and MESP1 (R1 ES cells [2]): increased

Molecule: CCCC(=O)Nc1ncnc2c1ncn2[C@@H]1O[C@@H]2COP(=O)(O)O[C@H]2[C@H]1OC(=O)CCC [dibutyryl cAMP]
- cardiac differentiation / percentage of beating colonies (R1 ES cells [1]): increased the percentage of beating colonies
- expression of Brachyury T, Flk-1, GATA-4 and MESP1 (R1 ES cells [2]): increased

B1: Wnt5a: Wnt-5A class, non-canonical Wnt signaling growth factor (protein, UniProt P41221 62-380, looked up)
Protein Wnt-5a: IIGAQPLCSQLAGLSQGQKKLCHLYQDHMQYIGEGAKTGIKECQYQFRHRRWNCSTVDNTSVFGRVMQIGSRETAFTYAVSAAGVVNAMSRACREGELSTCGCSRAARPKDLPRDWLWGGCGDNIDYGYRFAKEFVDARERERIHAKGSYESARILMNLHNNEAGRRTVYNLADVACKCHGVSGSCSLKTCWLQLADFRKVGDALKEKYDSAAAMRLNSRGKLVQVNSRFNSPTTQDLVYIDPSPDYCVRNESTGSLGTQGRLCNKTSEGMDGCELMCCGRGYDQFKTVQTERCHCKFHWCCYVKCKKCTEIVDQFVCK
- decrease in overall beating efficiency (R1 ES cells [1]; same stage as BayK 8644): 20%

B2: Activin A: a TGFβ/Activin/Nodal family member growth factor (protein, UniProt P08476 311-426, looked up)
Inhibin beta A chain: GLECDGKVNICCKKQFFVSFKDIGWNDWIIAPSGYHANYCEGECPSHIAGTSGSSLSFHSTVINHYRMRGHSPFANLKSCCVPTKLRPMSMLYYDDGQNIIKKDIQNMIVEECGCS
modifications: Inhibin beta A chain
- effect on cardiac specification (αMHC staining at day 10) (R1 mESCs): negative effects
- number of beating colonies (R1 ES cells [1]): lower number of beating colonies
- expression of cardiac specific markers (R1 ES cells [2]): opposite effect

B3: Dkk-1: Wnt inhibitor Dkk-1 (Dickkopf protein 1) (protein, UniProt O94907 32-266, looked up)
Dickkopf-related protein 1: TLNSVLNSNAIKNLPPPLGGAAGHPGSAVSAAPGILYPGGNKYQTIDNYQPYPCAEDEECGTDEYCASPTRGGDAGVQICLACRKRRKRCMRHAMCCPGNYCKNGICVSSDQNHFRGEIEETITESFGNDHSTLDGYSRRTTLSSKMYHTKGQEGSVCLRSSDCASGLCCARHFWSKICKPVLKEGQVCTKHRRKGSHGLEIFQRCYCGEGLSCRIQKDHHQASNSSRLHTCQRH
- increase in efficiency of cardiac differentiation (R1 mESCs; after BMP-4 and BIO for 5 days, treated in third or fourth window): 20%
- colonies developing a beating phenotype (R1 ES cells [1]; BMP-4 + BIO then Dkk-1, replated on gelatin, basal medium, after 6 days of culture): ~50%
